Measured values published in PubChem BioAssay (NCI).
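96-well plates; 48 h exposure; 5 concentrations. Endpoints by linear interpolation between flanking doses. Not reached: highest tested concentration assigned. The concentration for 50% growth inhibition is given as GI50. Definition used: TGI = concentration required for complete inhibition of growth.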

What was measured:
Assay in all cases: inhibition of tumour cell growth, NCI panel, 48 h
786-0 renal = test system: 786-0 renal
HCC-2998 colon = test system: HCC-2998 colon
HCT-116 colon = test system: HCT-116 colon
HT29 colon = test system: HT29 colon
IGROV1 ovarian = test system: IGROV1 ovarian
KM12 colon = test system: KM12 colon
OVCAR-4 ovarian = test system: OVCAR-4 ovarian
OVCAR-5 ovarian = test system: OVCAR-5 ovarian
SNB-75 CNS = test system: SNB-75 CNS
UACC-257 melanoma = test system: UACC-257 melanoma

| SMILES | GI50 (786-0 renal) [µM] | TGI (786-0 renal) [µM] | GI50 (HCC-2998 colon) [µM] | TGI (HCC-2998 colon) [µM] | GI50 (HCT-116 colon) [µM] | TGI (HCT-116 colon) [µM] | GI50 (HT29 colon) [µM] | TGI (HT29 colon) [µM] | GI50 (IGROV1 ovarian) [µM] | TGI (IGROV1 ovarian) [µM] | GI50 (KM12 colon) [µM] | TGI (KM12 colon) [µM] | GI50 (OVCAR-4 ovarian) [µM] | TGI (OVCAR-4 ovarian) [µM] | GI50 (OVCAR-5 ovarian) [µM] | TGI (OVCAR-5 ovarian) [µM] | GI50 (SNB-75 CNS) [µM] | TGI (SNB-75 CNS) [µM] | GI50 (UACC-257 melanoma) [µM] | TGI (UACC-257 melanoma) [µM] |
| --- | --- | --- | --- | --- | --- | --- | --- | --- | --- | --- | --- | --- | --- | --- | --- | --- | --- | --- | --- | --- |
| COc1cccc(/C=C2\CCc3ccccc3C2=O)c1 | 18.2 | 39.9 | 15.8 | 30.6 | 9.26 | 25.3 | 5.89 | 19.4 | 12.5 | 35 | 6.31 | 18.8 | 13.7 | 54.5 | 17.6 | 42.7 | 16.9 | 36 | 13.4 | 28.9 |
| C/C(CC(=O)Nc1cccc(C)c1C)=N\NC(N)=S |  | > 100 |  | > 100 |  | > 100 |  | > 100 |  | > 100 |  | > 100 |  | > 100 |  | > 100 |  | > 100 |  | > 100 |
| O=C(c1ccccc1)c1c2n(c3c1cc(O)c1ccccc13)CCN2 | 9.23 | 31.2 | 6.11 | 18.9 | 3.44 | 10.9 | 3.67 | 15.5 | 2.19 | 4.84 | 3.08 | 8.88 | 1.53 | 2.86 | 0.72 | 7.91 | 2.22 | 4.76 | 1.91 | 3.4 |
| O=C1Nc2c(ccc(Cl)c2Cl)/C1=C\c1cc(C(F)(F)F)cc(C(F)(F)F)c1 | 4.29 | 10.4 | 7.71 | 14.9 | 1.41 | 5.07 | 1.95 | 6.68 | 0.222 | 3.52 | 1.42 | 5.53 | 1.81 | 7.66 | 4.26 | 11.4 | 1.05 | 7.48 | 6.62 | 13.7 |
| CS(=O)(=O)c1ccc(-c2cnc(NCc3ccco3)n3cnnc23)cc1 | > 100 | > 100 | > 100 | > 100 | > 100 | > 100 | 28.8 | > 100 | > 100 | > 100 | > 100 | > 100 | > 100 | > 100 | > 100 | > 100 | > 100 | > 100 | 24.7 | > 100 |
| Cc1ccnc(NC(c2ccccc2)c2ccc3cccnc3c2O)c1 (configuration not stated) | 2.93 | 35.1 | 7.12 | > 100 | 2.94 | 14.5 |  |  | 2.33 | 23.3 | 4.15 | > 100 | 3.2 | 27.1 | 8.86 | > 100 | 21.1 | > 100 | 2.62 | 9.9 |
| NNC(=S)NN/C=C(\C=Nc1ccccc1)[N+](=O)[O-] |  | > 100 |  | > 100 |  | > 100 |  | > 100 |  | > 100 |  |  |  | > 100 |  | > 100 |  | > 100 |  | > 100 |
